Paper PMC11960070 (Microbiology Spectrum, 2025)
Where no end group is shown, it is not given here.

Experiments:
[1] = system: B. burgdorferi seropositive serum samples; experiment: MIA: Lyme disease-positive human serum IgG binding to Ala-substituted 130–150 peptides; conditions: n = 26 sera, 1:100
[2] = system: mAb 8C1; experiment: MIA: 8C1 reactivity with OspC-derived peptides / alanine scan

Question: “E140: 130–150 peptide with single Ala substitution at E140 (CSETFTNKLKAKHTDLGKEGV; also: biotinylated, site not given here; UniProt Q07337 130-150, looked up, variant E140A)” was tested. Which “Effect of Ala substitution on peptide recognition by human serum samples” value [1] did it give?
Answer: negatively affected

Question: “130–150: OspCA-derived peptide composed of residues 130-150 (CSETFTNKLKEKHTDLGKEGV; UniProt Q07337 130-150, looked up, fragment)” was tested. Which “8C1 reactivity with OspCA peptide” value [2] did it give?
Answer: reacted strongly

Question: For “D144: 130–150 peptide with single Ala substitution at D144 (CSETFTNKLKEKHTALGKEGV; also: biotinylated, site not given here; UniProt Q07337 130-150, looked up, variant D144A)”, which “Effect of Ala substitution on peptide recognition by human serum samples” value [1] is on record?
Answer: negatively affected
